Measurements reported in ChEMBL document CHEMBL3045174, “Synthesis and Insecticidal Activity of Alkylated N-Benzoyl-N-Phenylureas and Their Toxicity to Aquatic Invertebrate” (J Pestic Sci, 1998).

Experiments:
Daphnia magna = assay: Toxicity in Daphnia magna assessed as […] concentration measured up to 48 hr; format: organism-based
Plutella xylostella = assay: Insecticidal activity against second or third-instar Plutella xylostella (diamondback moth) in compound treated cabbage leaves at 26 degC; format: functional
[1] = Lipophilicity, log P of the compound by HPLC method; format: physicochemical

`CN(C(=O)NC(=O)c1c(F)cccc1F)c1ccc(-c2ccc(Br)cc2)cc1` gave an EC50 (Daphnia magna) of 150 ppb and an LC90 (Plutella xylostella) of 0.04 ppm.
For `CN(C(=O)NC(=O)c1c(F)cccc1F)c1cc(Cl)c(F)c(Cl)c1F`, the EC50 (Daphnia magna) was over 500 ppb and the LC90 (Plutella xylostella) was 0.15 ppm.
With `CN(C(=O)NC(=O)c1c(F)cccc1F)c1ccc(Cl)cc1` the EC50 (Daphnia magna) was over 500 ppb and the LC90 (Plutella xylostella) was 12.5 ppm.
Compound `CN(C(=O)NC(=O)c1c(F)cccc1F)c1ccc(Oc2ccc(C(F)(F)F)cc2Cl)c(F)c1` has an EC50 (Daphnia magna) of 500 ppb and an LC90 (Plutella xylostella) of 0.04 ppm.
`O=C(NC(=O)N(CC(F)(F)F)c1cc(Cl)c(Oc2ncc(C(F)(F)F)cc2Cl)c(Cl)c1)c1c(F)cccc1F` showed an LC90 (Plutella xylostella) of 1.25 ppm.
Work on `O=C(NC(=O)N(Cc1ccccc1)c1cc(Cl)c(Oc2ncc(C(F)(F)F)cc2Cl)c(Cl)c1)c1c(F)cccc1F` yielded an LC90 (Plutella xylostella) of 5 ppm.
For `CN(C(=O)NC(=O)c1c(F)cccc1F)c1ccc(Oc2ccc(C(F)(F)F)cc2Cl)c(Cl)c1`, the EC50 (Daphnia magna) was 100 ppb and the LC90 (Plutella xylostella) was 0.04 ppm.
With `CN(C(=O)c1c(F)cccc1F)C(=O)N(C)c1cc(Cl)c(Oc2ncc(C(F)(F)F)cc2Cl)c(Cl)c1` the EC50 (Daphnia magna) was over 500 ppb, the LC90 (Plutella xylostella) was 0.3 ppm and the logP [1] was 4.76.
`CCN(C(=O)NC(=O)c1c(F)cccc1F)c1cc(Cl)c(Oc2ncc(C(F)(F)F)cc2Cl)c(Cl)c1` showed an LC90 (Plutella xylostella) of 0.3 ppm.
In the case of `CC(C)N(C(=O)NC(=O)c1c(F)cccc1F)c1cc(Cl)c(Oc2ncc(C(F)(F)F)cc2Cl)c(Cl)c1`, the LC90 (Plutella xylostella) is reported as 0.8 ppm.
With `CN(C(=O)NC(=O)c1c(F)cccc1F)c1cc(Cl)c(Oc2ncc(C(F)(F)F)cc2Cl)c(Cl)c1` the EC50 (Daphnia magna) was 450 ppb, the LC90 (Plutella xylostella) was 0.08 ppm and the logP [1] was 4.21.
`CN(C(=O)Nc1cc(Cl)c(Oc2ncc(C(F)(F)F)cc2Cl)c(Cl)c1)C(=O)c1c(F)cccc1F` gave an EC50 (Daphnia magna) of over 500 ppb, an LC90 (Plutella xylostella) of 10 ppm and a logP [1] of 7.26.
With `O=C(NC(=O)c1c(F)cccc1F)Nc1cc(Cl)c(Oc2ncc(C(F)(F)F)cc2Cl)c(Cl)c1` [CHLORFLUAZURON] the LC90 (Plutella xylostella) was 0.04 ppm and the logP [1] was 5.71.
`O=C(NC(=O)c1c(F)cccc1F)Nc1ccc(Cl)cc1` [DIFLUBENZURON] showed an LC90 (Plutella xylostella) of 12.5 ppm.
Compound `O=C(NC(=O)c1c(F)cccc1F)Nc1ccc(Oc2ccc(C(F)(F)F)cc2Cl)cc1F` [FLUFENOXURON] has an LC90 (Plutella xylostella) of 0.04 ppm.
With `O=C(NC(=O)c1c(F)cccc1F)Nc1cc(Cl)c(OC(F)(F)C(F)F)c(Cl)c1` [HEXAFLUMURON] the LC90 (Plutella xylostella) was 0.04 ppm.
`O=C(NC(=O)c1c(F)cccc1F)Nc1cc(Cl)c(F)c(Cl)c1F` [TEFLUBENZURON] showed an LC90 (Plutella xylostella) of 0.02 ppm.
